For one experiment, the target named is Axl (Homo sapiens (Human), UniProt P30530). The conditions noted are these: read-out: IC50 Axl.
The target of another experiment is Tyro3 (Homo sapiens (Human), UniProt Q06418). The note with it: read-out: IC50 Tyro3.

This is an account of results in patent US9649309B2 (priority 2014, dated 2017).

Chain of Axl (P30530 26-894 limits assumed): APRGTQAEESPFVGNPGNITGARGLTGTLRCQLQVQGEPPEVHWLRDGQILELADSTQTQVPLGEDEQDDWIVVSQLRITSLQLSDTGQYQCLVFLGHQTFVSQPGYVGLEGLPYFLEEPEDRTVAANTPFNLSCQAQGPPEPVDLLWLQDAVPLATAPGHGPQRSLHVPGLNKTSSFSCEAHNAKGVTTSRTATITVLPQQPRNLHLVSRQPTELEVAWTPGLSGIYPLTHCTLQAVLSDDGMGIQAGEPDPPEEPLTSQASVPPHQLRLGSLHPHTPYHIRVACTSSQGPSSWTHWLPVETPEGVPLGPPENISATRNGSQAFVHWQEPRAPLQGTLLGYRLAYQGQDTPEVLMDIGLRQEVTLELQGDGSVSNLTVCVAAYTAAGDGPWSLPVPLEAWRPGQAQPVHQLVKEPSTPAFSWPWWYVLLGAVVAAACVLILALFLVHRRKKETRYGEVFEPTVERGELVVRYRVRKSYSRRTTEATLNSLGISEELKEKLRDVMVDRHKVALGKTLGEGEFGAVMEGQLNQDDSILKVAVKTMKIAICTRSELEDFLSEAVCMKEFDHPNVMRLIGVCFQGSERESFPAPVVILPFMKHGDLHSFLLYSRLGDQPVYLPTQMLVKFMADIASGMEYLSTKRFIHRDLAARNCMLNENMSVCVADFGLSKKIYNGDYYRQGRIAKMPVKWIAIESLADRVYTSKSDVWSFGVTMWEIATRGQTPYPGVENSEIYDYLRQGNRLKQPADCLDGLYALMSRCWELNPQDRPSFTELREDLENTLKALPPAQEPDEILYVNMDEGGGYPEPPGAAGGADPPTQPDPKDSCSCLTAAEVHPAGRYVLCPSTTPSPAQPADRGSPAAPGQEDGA
Chain of Tyro3 (Q06418 41-890 limits assumed): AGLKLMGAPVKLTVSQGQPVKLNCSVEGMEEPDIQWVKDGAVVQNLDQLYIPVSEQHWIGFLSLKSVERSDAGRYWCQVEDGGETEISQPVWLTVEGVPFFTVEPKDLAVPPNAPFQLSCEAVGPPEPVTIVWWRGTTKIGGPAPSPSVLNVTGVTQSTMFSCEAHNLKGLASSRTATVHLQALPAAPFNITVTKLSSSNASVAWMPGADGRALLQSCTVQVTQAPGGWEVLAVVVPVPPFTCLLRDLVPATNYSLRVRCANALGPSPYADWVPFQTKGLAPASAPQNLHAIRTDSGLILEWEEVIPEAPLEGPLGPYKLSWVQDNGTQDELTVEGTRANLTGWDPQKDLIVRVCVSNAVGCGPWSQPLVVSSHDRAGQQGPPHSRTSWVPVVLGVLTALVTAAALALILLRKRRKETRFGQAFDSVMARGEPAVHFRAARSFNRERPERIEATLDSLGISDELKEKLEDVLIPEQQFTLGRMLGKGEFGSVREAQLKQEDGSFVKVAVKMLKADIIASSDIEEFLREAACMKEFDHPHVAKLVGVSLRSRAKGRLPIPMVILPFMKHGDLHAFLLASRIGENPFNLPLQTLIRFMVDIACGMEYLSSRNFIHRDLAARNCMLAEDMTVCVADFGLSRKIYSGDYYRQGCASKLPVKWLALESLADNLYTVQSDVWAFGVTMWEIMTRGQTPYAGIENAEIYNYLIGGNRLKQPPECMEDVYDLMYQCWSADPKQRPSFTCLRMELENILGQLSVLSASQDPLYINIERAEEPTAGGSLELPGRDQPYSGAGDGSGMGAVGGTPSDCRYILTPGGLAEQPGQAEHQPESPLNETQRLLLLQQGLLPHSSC

The term IC50 denotes the midpoint of a concentration-inhibition curve. In the case of `CCCCNc1ncc(C(=O)NCC2CCN(C3CCCCC3)CC2)c(N[C@H]2CC[C@H](O)CC2)n1` [UNC4302A], the IC50 came to 292 nM on Axl and 153 nM on Tyro3.

In the case of `CCCCNc1ncc(-c2ccc(NC(=O)c3ccccc3)cn2)c(NC2CCC(O)CC2)n1` (centres unmarked) [UNC2713A], the IC50 stood at 522 nM at Axl and 325 nM at Tyro3.

On to `CCCCNc1ncc(-c2cnc(N)c(OC)n2)c(N[C@H]2CC[C@H](O)CC2)n1` [UNC3043A], for which the values for the 50% inhibitory concentration (IC50) on Axl and on Tyro3 were 2310 nM and 1640 nM, respectively.

As to `CCCCNc1ncc(-c2ccc(OC)nn2)c(N[C@H]2CC[C@H](O)CC2)n1` [UNC3049A], the results for the IC50 at Axl and on Tyro3 were 4440 nM and 221 nM, respectively.

Consider `CCCCNc1ncc(C(=O)NC2CCN(CCCc3ccccc3)CC2)c(N[C@H]2CC[C@H](O)CC2)n1` [UNC2801A], for which the concentration for half-maximal inhibition (IC50) at Axl is 205 nM; at Tyro3, 113 nM.

For the molecule `CCCCNc1ncc(-c2cc(N)ncn2)c(N[C@H]2CC[C@H](O)CC2)n1` [UNC3072A], the half-maximal inhibitory concentration (IC50) at Axl is 123 nM; on Tyro3, 43 nM.

Take `CCCCNc1ncc(-c2ccc(NC3CC3)nn2)c(N[C@H]2CC[C@H](O)CC2)n1` [UNC3069A]: the IC50 on Axl stood at 419 nM; at Tyro3, 176 nM.

Take `CCCCNc1ncc(C(=O)NCc2cccs2)c(N[C@H]2CC[C@H](O)CC2)n1` [UNC2762A]: the IC50 stood at 220 nM at Axl and 148 nM at Tyro3.

On to `CCCCNc1ncc(C(=O)NCc2cncs2)c(N[C@H]2CC[C@H](O)CC2)n1` [UNC4344A], for which the concentration for half-maximal inhibition (IC50) was 196 nM on Axl and 276 nM on Tyro3.

For `CCCCNc1ncc(-c2ccc(NC(=O)C3CCCC3)cn2)c(NC2CCC(O)CC2)n1` (centres unmarked) [UNC2791A], the results for the IC50 at Axl and on Tyro3 were 886 nM and 416 nM, respectively.

For the molecule `O[C@H]1CC[C@H](Nc2nc(NCCC3CC3)ncc2-c2ccc(CN3CCCC3)cn2)CC1` [UNC4197A], the IC50 worked out at 43 nM at Axl and 24 nM at Tyro3.

Take `CCCCNc1ncc(-c2ccc(CN3CCN[C@H](C)C3)cn2)c(NC2CCC(O)CC2)n1` (some centres unmarked) [UNC4113A]: the figures for the concentration for half-maximal inhibition (IC50) on Axl and on Tyro3 were 55 nM and 18 nM, respectively.

Turning to `CCCCNc1ncc(C(=O)NCC(=O)N2CCCCC2)c(N[C@H]2CC[C@H](O)CC2)n1` [UNC2604A], the IC50 on Axl stood at 1200 nM; at Tyro3, 412 nM.

On to `CCCCNc1ncc(-c2cc(NC3CCCCCC3)ncn2)c(N[C@H]2CC[C@H](O)CC2)n1` [UNC4261A], for which the IC50 worked out at 579 nM on Axl and 380 nM at Tyro3.

On to `CCCCNc1ncc(-c2ccc(CCCN3CCCC3)cn2)c(N[C@H]2CC[C@H](O)CC2)n1` [UNC4220A], for which the 50% inhibitory concentration (IC50) on Axl is 122 nM; on Tyro3 it was 68 nM.

As to `CCCCNc1ncc(-c2ccccn2)c(NCCCCCO)n1` [UNC2964A], the concentration for half-maximal inhibition (IC50) on Axl came to 5270 nM; on Tyro3, 2770 nM.

With `CCCCNc1ncc(-c2ncc(C(N)=O)s2)c(N[C@H]2CC[C@H](O)CC2)n1` [UNC3134A], the IC50 was found to be 146 nM on Axl and 62 nM on Tyro3.

Regarding `CCCCNc1ncc(-c2cc(Nc3cccc(C(C)C)c3)ncn2)c(N[C@H]2CC[C@H](O)CC2)n1` [UNC4323A], the concentration for half-maximal inhibition (IC50) on Axl came to 30000 nM; on Tyro3, 619 nM.

On to `CCCCNc1ncc(C(=O)NCc2ccc(-c3cccnc3)nc2)c(N[C@H]2CC[C@H](O)CC2)n1` [UNC4236A], for which the IC50 at Axl amounted to 216 nM; at Tyro3 it was 92 nM.

With `CCCCNc1ncc(C(=O)NC2CCN(CCc3ccccc3)CC2)c(N[C@H]2CC[C@H](O)CC2)n1` [UNC2800A], the half-inhibitory concentration (IC50) is 314 nM at Axl and 130 nM at Tyro3.

Take `CCCCNc1ncc(-c2ccc(C=C3CCN(C)CC3)cn2)c(N[C@H]2CC[C@H](O)CC2)n1` [UNC4338A]: the IC50 at Axl stood at 42 nM; at Tyro3, 20 nM.

As for `CCCCNc1ncc(-c2cc(SC)nc(C)n2)c(N[C@H]2CC[C@H](O)CC2)n1` [UNC3130A], the concentration for half-maximal inhibition (IC50) amounted to 1090 nM on Axl and 384 nM on Tyro3.

Take `CCCCNc1ncc(-c2ccc(CC3CCNCC3)cn2)c(N[C@H]2CC[C@H](O)CC2)n1` [UNC4335A, trans-4-((2-(butylamino)-5-(5-(piperidin-4-ylmethyl)pyridin-2-yl)pyrimidin-4-yl)amino)cyclohexan-1-ol]: the figures for the IC50 on Axl and on Tyro3 were 137 nM and 56 nM, respectively.

For `CCCCNc1ncc(-c2ccc(CN3CCN[C@@H](C)C3)cn2)c(NC2CCC(O)CC2)n1` (some centres unmarked) [UNC4106A], the 50% inhibitory concentration (IC50) stood at 47 nM on Axl and 22 nM on Tyro3.

`CCCCNc1ncc(C(=O)Nc2ccc(CCN3CCN(C)CC3)cc2)c(N[C@H]2CC[C@H](O)CC2)n1` [UNC2806A]: the half-inhibitory concentration (IC50) on Axl worked out at 266 nM; at Tyro3, 98 nM.

For the molecule `CCCCNc1ncc(C(=O)NCc2ccc(-n3cnc(C)c3)cc2)c(N[C@H]2CC[C@H](O)CC2)n1` [UNC2956A], the concentration for half-maximal inhibition (IC50) on Axl turned out to be 136 nM; on Tyro3, 200 nM.

Take `CCCCNc1ncc(-c2ccc(CNC3CC4CCC(C3)N4C)cn2)c(N[C@H]2CC[C@H](O)CC2)n1` (some centres unmarked) [UNC4165A]: the IC50 on Axl was 18 nM; at Tyro3 it was 8 nM.

Take `CCCCNc1ncc(C(=O)NCc2ccc3ccccc3n2)c(N[C@H]2CC[C@H](O)CC2)n1` [UNC4286A]: the IC50 was 572 nM at Axl and 253 nM at Tyro3.

For the molecule `CCCCNc1ncc(C(=O)NCc2ccc(-c3c(C)noc3C)nc2)c(N[C@H]2CC[C@H](O)CC2)n1` [UNC4260A], the IC50 on Axl stood at 602 nM; at Tyro3, 256 nM.

Consider `CCCCNc1ncc(-c2ccc(C=O)o2)c(N[C@H]2CC[C@H](O)CC2)n1` [UNC2902A, 5-(2-(Butylamino)-4-((trans-4-hydroxycyclohexyl)amino)pyrimidin-5-yl)furan-2-carbaldehyde], for which the values for the 50% inhibitory concentration (IC50) on Axl and at Tyro3 were 1630 nM and 241 nM, respectively.

As to `CCCCNc1ncc(-c2ccc(CNC34CC5CC(CC(C5)C3)C4)cn2)c(N[C@H]2CC[C@H](O)CC2)n1` [UNC4166A], the half-inhibitory concentration (IC50) came out at 13 nM on Axl and 9.4 nM on Tyro3.

`CCCCNc1ncc(-c2cncc(N3CCOCC3)n2)c(N[C@H]2CC[C@H](O)CC2)n1` [UNC3138A]: the values for the IC50 on Axl and on Tyro3 were 1250 nM and 935 nM, respectively.

As to `CCCCNc1ncc(C(=O)NC2CCN(CC3CCCCC3)CC2)c(N[C@H]2CC[C@H](O)CC2)n1` [UNC2877A], the figures for the IC50 at Axl and at Tyro3 were 245 nM and 230 nM, respectively.

Take `CCCCNc1ncc(C(=O)NCC2CCN(C(C)=O)CC2)c(N[C@H]2CC[C@H](O)CC2)n1` [UNC4288A]: the IC50 on Axl stood at 1050 nM; at Tyro3, 262 nM.

With `CCCCNc1ncc(-c2nccnc2N)c(N[C@H]2CC[C@H](O)CC2)n1` [UNC3119A], the IC50 was found to be 30000 nM on Axl and 9620 nM at Tyro3.

As for `CCCCNc1ncc(C(=O)NCc2ccc(N3CCCC3)cc2)c(N[C@H]2CC[C@H](O)CC2)n1` [UNC2886A], the IC50 at Axl turned out to be 325 nM; on Tyro3, 183 nM.

As for `CCCCNc1ncc(-c2ncc(C)s2)c(N[C@H]2CC[C@H](O)CC2)n1` [UNC3140A], the 50% inhibitory concentration (IC50) at Axl was determined as 395 nM; at Tyro3, 322 nM.

`CCCCNc1ncc(-c2cc(Nc3cccc(OC)c3)ncn2)c(N[C@H]2CC[C@H](O)CC2)n1` [UNC4270A]: the IC50 at Axl was 158 nM; at Tyro3, 121 nM.

In the case of `CCCCNc1ncc(-c2ccc(C3=CCN(C(C)C)CC3)cn2)c(N[C@H]2CC[C@H](O)CC2)n1` [UNC4358A], the IC50 at Axl turned out to be 24 nM; at Tyro3, 42 nM.

As for `CCCCNc1ncc(-c2ccc(CN3C4CCCC3CC4)cn2)c(N[C@H]2CC[C@H](O)CC2)n1` [UNC4169A], the IC50 at Axl is 9.6 nM; on Tyro3, 3.9 nM.

Turning to `CCCCNc1ncc(-c2cc(Nc3ccc(OC)cc3)ncn2)c(N[C@H]2CC[C@H](O)CC2)n1` [UNC4269A], the IC50 worked out at 513 nM on Axl and 234 nM on Tyro3.

For the molecule `CCCCNc1ncc(C(=O)NCc2ccc(N3CCOCC3)cc2)c(N[C@H]2CC[C@H](O)CC2)n1` [UNC2804A], the half-maximal inhibitory concentration (IC50) was 592 nM at Axl and 210 nM at Tyro3.

In the case of `CCCCNc1ncc(C(=O)NCC2CCNCC2)c(N[C@H]2CC[C@H](O)CC2)n1` [UNC4287A], the IC50 came to 960 nM at Axl and 494 nM on Tyro3.

For the molecule `CCCCNc1ncc(C(=O)NC2CCN(Cc3cccnc3)CC2)c(N[C@H]2CC[C@H](O)CC2)n1` [UNC2802A], the concentration for half-maximal inhibition (IC50) on Axl was 408 nM; at Tyro3 it was 123 nM.

For the molecule `CCCCNc1ncc(-c2cc(Nc3ccccc3OC)ncn2)c(N[C@H]2CC[C@H](O)CC2)n1` [UNC4272A], the IC50 on Axl came out at 12300 nM; at Tyro3, 194 nM.

With `CCCCNc1ncc(C(=O)NCC2CCN(C(C)C)CC2)c(N[C@H]2CC[C@H](O)CC2)n1` [UNC4289A], the IC50 was determined as 420 nM at Axl and 178 nM at Tyro3.

On to `CCCC1(Nc2ncc(-c3ccc(CN4CCN(C)CC4)cn3)c(NC3CCC(O)CC3)n2)CC1` (centres unmarked) [UNC3668A], for which the half-inhibitory concentration (IC50) on Axl is 5300 nM; on Tyro3, 409 nM.

Take `CCCCNc1ncc(-c2ccc(C3(N4CCOCC4)CCC3)cn2)c(NC2CCC(O)CC2)n1` (centres unmarked) [UNC3666A]: the figures for the IC50 at Axl and at Tyro3 were 52 nM and 11 nM, respectively.

With `CCCCNc1ncc(C(=O)NCc2ccc(-n3ccnc3C)cc2)c(N[C@H]2CC[C@H](O)CC2)n1` [UNC3004A], the IC50 on Axl is 822 nM; on Tyro3, 272 nM.

As to `CCCCNc1ncc(C(=O)NCC2CCN(c3ccccc3)CC2)c(N[C@H]2CC[C@H](O)CC2)n1` [UNC4304A], the 50% inhibitory concentration (IC50) on Axl amounted to 664 nM; on Tyro3 it was 333 nM.

Consider `CCCCNc1ncc(C(=O)Nc2ccc(CCN3CCOCC3)cc2)c(N[C@H]2CC[C@H](O)CC2)n1` [UNC2805A], for which the half-inhibitory concentration (IC50) on Axl was 409 nM; at Tyro3, 184 nM.

With `CCCCNc1ncc(-c2ncc(C(=O)O)s2)c(N[C@H]2CC[C@H](O)CC2)n1` [UNC3331A], the IC50 on Axl is 414 nM; at Tyro3 it was 95 nM.

For the molecule `CCCCNc1ncc(C(=O)NCc2ccc(-c3cccc(OC)c3)nc2)c(N[C@H]2CC[C@H](O)CC2)n1` [UNC4246A], the results for the half-inhibitory concentration (IC50) at Axl and at Tyro3 were 489 nM and 244 nM, respectively.

Take `CCCCNc1ncc(-c2cc(NC(=O)c3ccc(F)cc3)ncn2)c(N[C@H]2CC[C@H](O)CC2)n1` [UNC3182A]: the IC50 at Axl and at Tyro3 was 30000 nM in each case.

Consider `CCCCNc1ncc(-c2cc(Nc3cccc(-c4ccccc4)c3)ncn2)c(N[C@H]2CC[C@H](O)CC2)n1` [UNC4353A], for which the half-maximal inhibitory concentration (IC50) worked out at 30000 nM on Axl and 15100 nM on Tyro3.
